This note sets out measurements from patent publication US20250361230A1, “LATS Inhibitors and Uses Thereof” (The USA, as Represented by the Secretary, Dept. of Heath …, priority 2022, published 2025).

Assay type in all cases: biochemical
Experiment [1] has as its target AKT (Homo sapiens, UniProt P31749). Put plainly: RBC HotSpot kinase assay (33P-ATP, P81 filter-binding), AKT. Conditions: Table 28, biochemical kinase assay; read-out: AKT IC50. Summed up: (§1)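 Hepes pH 7.5/MgCl2/EGTA/Brij35/BSA/Na3VO4/DTT buffer, cofactors per kinase; cpd acoustically dispensed, 20 min preinc RT; start w/ 33P-ATP, 2 h RT; P81 filter readout; 10-pt singlet IC50.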

The target of experiment [2] is T1, LATS1 (Homo sapiens, UniProt O95835).
T1 sequence (O95835 1-1130): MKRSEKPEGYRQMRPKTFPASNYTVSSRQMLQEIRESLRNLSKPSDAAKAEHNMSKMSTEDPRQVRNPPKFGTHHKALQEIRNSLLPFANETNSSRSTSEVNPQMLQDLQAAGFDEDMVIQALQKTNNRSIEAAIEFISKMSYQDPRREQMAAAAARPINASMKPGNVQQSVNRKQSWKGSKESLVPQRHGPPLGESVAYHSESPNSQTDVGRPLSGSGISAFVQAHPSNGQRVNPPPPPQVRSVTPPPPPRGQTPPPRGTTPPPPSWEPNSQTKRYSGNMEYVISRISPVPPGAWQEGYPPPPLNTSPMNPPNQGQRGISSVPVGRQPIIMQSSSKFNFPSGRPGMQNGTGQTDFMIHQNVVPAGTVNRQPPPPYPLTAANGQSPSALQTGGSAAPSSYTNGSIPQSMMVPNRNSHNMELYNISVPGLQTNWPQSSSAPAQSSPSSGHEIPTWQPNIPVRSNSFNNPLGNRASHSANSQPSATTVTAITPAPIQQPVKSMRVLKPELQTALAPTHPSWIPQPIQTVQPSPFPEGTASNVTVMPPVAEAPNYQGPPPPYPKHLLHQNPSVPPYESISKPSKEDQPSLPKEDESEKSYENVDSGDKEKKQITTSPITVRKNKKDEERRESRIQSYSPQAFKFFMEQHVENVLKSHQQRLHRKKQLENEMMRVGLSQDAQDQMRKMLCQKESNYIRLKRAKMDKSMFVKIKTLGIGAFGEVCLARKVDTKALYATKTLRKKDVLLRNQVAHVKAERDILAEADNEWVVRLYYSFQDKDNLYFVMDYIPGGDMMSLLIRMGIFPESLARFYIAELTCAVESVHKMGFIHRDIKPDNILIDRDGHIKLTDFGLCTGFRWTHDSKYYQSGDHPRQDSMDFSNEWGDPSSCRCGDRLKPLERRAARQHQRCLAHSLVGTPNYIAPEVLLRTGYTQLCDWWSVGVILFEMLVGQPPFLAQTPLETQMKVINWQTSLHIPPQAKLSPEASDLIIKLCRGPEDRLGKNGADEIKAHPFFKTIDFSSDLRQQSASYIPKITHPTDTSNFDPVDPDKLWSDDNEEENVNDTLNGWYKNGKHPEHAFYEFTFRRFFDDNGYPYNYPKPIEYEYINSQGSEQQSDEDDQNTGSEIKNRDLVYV
Put plainly: RBC HotSpot kinase assay (33P-ATP, P81 filter-binding), LATS1. Conditions: Table 28, biochemical kinase assay; read-out: LATS1 IC50. Summed up:
as §1

Experiment [3] deals with T2, LATS2 (Homo sapiens, UniProt Q9NRM7).
T2 sequence (Q9NRM7 1-1088): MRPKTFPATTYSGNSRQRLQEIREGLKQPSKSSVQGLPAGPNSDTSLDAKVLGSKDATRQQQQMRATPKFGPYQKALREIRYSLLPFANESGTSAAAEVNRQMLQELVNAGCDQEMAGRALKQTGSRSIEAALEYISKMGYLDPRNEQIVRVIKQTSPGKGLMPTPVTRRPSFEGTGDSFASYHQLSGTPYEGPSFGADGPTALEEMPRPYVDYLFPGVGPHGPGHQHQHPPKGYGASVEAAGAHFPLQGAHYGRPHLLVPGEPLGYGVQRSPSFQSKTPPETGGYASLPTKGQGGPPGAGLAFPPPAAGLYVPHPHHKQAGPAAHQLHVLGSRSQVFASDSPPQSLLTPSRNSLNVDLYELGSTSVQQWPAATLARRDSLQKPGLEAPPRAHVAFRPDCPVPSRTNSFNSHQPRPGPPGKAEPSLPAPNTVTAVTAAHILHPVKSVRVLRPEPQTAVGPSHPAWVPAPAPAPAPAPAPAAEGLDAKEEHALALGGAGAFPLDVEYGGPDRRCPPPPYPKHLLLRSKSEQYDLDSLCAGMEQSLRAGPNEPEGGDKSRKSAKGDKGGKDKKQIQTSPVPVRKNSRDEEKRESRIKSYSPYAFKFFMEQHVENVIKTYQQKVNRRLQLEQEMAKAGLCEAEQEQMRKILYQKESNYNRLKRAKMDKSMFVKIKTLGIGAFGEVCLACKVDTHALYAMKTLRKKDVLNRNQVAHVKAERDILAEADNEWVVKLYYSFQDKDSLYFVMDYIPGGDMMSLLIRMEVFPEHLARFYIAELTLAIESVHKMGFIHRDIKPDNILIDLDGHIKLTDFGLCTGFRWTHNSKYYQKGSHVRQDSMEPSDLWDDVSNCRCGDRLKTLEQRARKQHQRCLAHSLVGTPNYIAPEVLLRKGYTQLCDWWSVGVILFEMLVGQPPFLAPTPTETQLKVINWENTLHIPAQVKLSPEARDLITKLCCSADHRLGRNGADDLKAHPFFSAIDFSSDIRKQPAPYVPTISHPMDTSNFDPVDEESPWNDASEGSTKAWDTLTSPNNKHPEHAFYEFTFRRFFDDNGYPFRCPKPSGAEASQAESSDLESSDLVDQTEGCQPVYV
Put plainly: RBC HotSpot kinase assay (33P-ATP, P81 filter-binding), LATS2. Conditions: Table 28, biochemical kinase assay; read-out: LATS2 IC50. The gist of the method:
as §1

Each structure is given as a SMILES string. Where only a bound is given, the exact number is not on record here.

AKT, sequence (P31749 whole entry): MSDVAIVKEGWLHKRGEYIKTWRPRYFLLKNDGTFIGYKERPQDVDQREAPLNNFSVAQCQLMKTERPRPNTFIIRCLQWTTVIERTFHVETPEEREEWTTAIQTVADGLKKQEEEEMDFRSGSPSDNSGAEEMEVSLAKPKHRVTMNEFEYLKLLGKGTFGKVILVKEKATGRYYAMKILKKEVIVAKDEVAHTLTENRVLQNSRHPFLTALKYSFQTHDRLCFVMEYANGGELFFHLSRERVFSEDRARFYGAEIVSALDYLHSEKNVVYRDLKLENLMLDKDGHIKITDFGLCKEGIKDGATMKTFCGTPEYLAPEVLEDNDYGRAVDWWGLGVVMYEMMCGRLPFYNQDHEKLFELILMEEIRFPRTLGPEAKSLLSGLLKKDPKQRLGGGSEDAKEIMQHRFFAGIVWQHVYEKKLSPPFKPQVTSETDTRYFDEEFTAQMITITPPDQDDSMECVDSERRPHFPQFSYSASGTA

In the case of `CC(C)(O)C#Cc1cc(-c2ccnc3[nH]ccc23)ccc1CN` [Compound 244, 4-(2-(aminomethyl)-5-(1H-pyrrolo[2,3-b]pyridin-4-yl)phenyl)-2-methylbut-3-yn-2-ol], the IC50 amounted to 1.25 µM in experiment [1], 0.02 µM in experiment [2] and 0.028 µM in experiment [3].

As to `NCc1ccc(-c2ccnc3[nH]ccc23)cc1-c1ccccc1` [Compound 246, (5-(1H-pyrrolo[2,3-b]pyridin-4-yl)-[1,1′-biphenyl]-2-yl)methanamine], the IC50 worked out at 0.378 µM in experiment [1], 0.015 µM in experiment [2] and 0.02 µM in experiment [3].

For the molecule `NCc1ccc(-c2ccnc3[nH]cc(-c4cccc(F)c4)c23)cc1` [Compound 247, (4-(3-(3-fluorophenyl)-1H-pyrrolo[2,3-b]pyridin-4-yl)phenyl) methanamine], the figures for the concentration for half-maximal inhibition (IC50) in experiment [1], in experiment [2] and in experiment [3] were 1.41 µM, 0.021 µM and 0.011 µM, respectively.

For the molecule `NCc1ccc(-c2ccnc3[nH]cc(-c4ccccc4F)c23)cc1` [Compound 248, (4-(3-(2-fluorophenyl)-1H-pyrrolo[2,3-b]pyridin-4-yl)phenyl) methanamine], the half-maximal inhibitory concentration (IC50) in experiment [1] was 2.84 µM; in experiment [2], 0.05 µM; in experiment [3], 0.01 µM.

In the case of `NCc1ccc(-c2ccnc3[nH]cc(Cl)c23)cc1Cl` [Compound 249, (2-chloro-4-(3-chloro-1H-pyrrolo[2,3-b]pyridin-4-yl)phenyl) methanamine], the half-inhibitory concentration (IC50) in experiment [1] turned out to be 0.218 µM; in experiment [2] it was 0.0084 µM; in experiment [3] it was 0.0079 µM.

Take `Cc1cc2c(-c3ccc(CN)cc3)ccnc2[nH]1` [Compound 251, (4-(2-methyl-1H-pyrrolo[2,3-b]pyridin-4-yl)phenyl) methanamine]: the figures for the IC50 in experiment [1], in experiment [2] and in experiment [3] were more than 10 µM, 0.893 µM and 0.389 µM, respectively.

Consider `Cc1cc(-c2ccnc3[nH]ccc23)cnc1CN` [Compound 252, (3-methyl-5-(1H-pyrrolo[2,3-b]pyridin-4-yl)pyridin-2-yl)methanamine], for which the results for the half-maximal inhibitory concentration (IC50) in experiment [1], in experiment [2] and in experiment [3] were 3.16 µM, 0.0082 µM and 0.012 µM, respectively.

`Cc1cc(-c2ccc(CN)cc2)c2cc[nH]c2n1` [Compound 256, (4-(6-methyl-1H-pyrrolo[2,3-b]pyridin-4-yl)phenyl) methanamine]: the values for the 50% inhibitory concentration (IC50) in experiment [1], in experiment [2] and in experiment [3] were more than 10 µM, 9 µM and 4.26 µM, respectively.

For `Cc1c[nH]c2nccc(-c3ccc(CN)cc3)c12` [Compound 257, (4-(3-methyl-1H-pyrrolo[2,3-b]pyridin-4-yl)phenyl) methanamine], the results for the IC50 in experiment [1], in experiment [2] and in experiment [3] were 0.625 µM, 0.013 µM and 0.012 µM, respectively.

On to `O=C1NCc2cc(-c3ccnc4[nH]ccc34)ccc21` [Compound 258, 5-(1H-pyrrolo[2,3-b]pyridin-4-yl)isoindolin-1-one], for which the IC50 is more than 10 µM in experiment [1], 0.231 µM in experiment [2] and 0.065 µM in experiment [3].

On to `O=C1NCc2ccc(-c3ccnc4[nH]ccc34)cc21` [Compound 259, 6-(1H-pyrrolo[2,3-b]pyridin-4-yl)isoindolin-1-one], for which the results for the IC50 in experiment [1], in experiment [2] and in experiment [3] were more than 10 µM, 0.11 µM and 0.253 µM, respectively.

Regarding `O=C1NCCc2cc(-c3ccnc4[nH]ccc34)ccc21` [Compound 260, 6-(1H-pyrrolo[2,3-b]pyridin-4-yl)-3,4-dihydroisoquinol in-1(2H)-one], the concentration for half-maximal inhibition (IC50) in experiment [1] stood at 6.6 µM; in experiment [2], 0.087 µM; in experiment [3] it was 0.052 µM.

For the molecule `NCc1ccc(-c2cc(-c3ccncc3)nc3[nH]ccc23)cc1` [Compound 261, (4-(6-(pyridin-4-yl)-1H-pyrrolo[2,3-b]pyridin-4-yl)phenyl) methanamine], the concentration for half-maximal inhibition (IC50) amounted to 8.83 µM in experiment [1], 0.034 µM in experiment [2] and 0.01 µM in experiment [3].

On to `NCc1ccc(-c2cc(Cl)nc3[nH]ccc23)cc1` [Compound 262, (4-(6-chloro-1H-pyrrolo[2,3-b]pyridin-4-yl)phenyl) methanamine], for which the IC50 in experiment [1] is more than 10 µM; in experiment [2], more than 10 µM; in experiment [3], 4.42 µM.

By IC50 is commonly meant the point on the concentration scale where inhibition reaches its midpoint.
